Six compounds from ChEMBL document CHEMBL1201862, “PubChem BioAssay data set” (2004) can be followed below.

Some test systems named below: SK-MEL-5; SR; CCRF-CEM; RPMI-8226; HCC 2998; OVCAR-4; HCT-116; TK-10; HCT-15; NCI-H460; UACC-62; NCI-H522; MOLT-4; OVCAR-3; CAKI-1.
What all share (test): NCI tumour cell line growth inhibition, 48 h

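1) Cells in 96-well plates. 2) Compound, 48 h, 5 concentrations. 3) Linear interpolation between surrounding doses. 4) Unreached endpoint = highest concentration. Abbreviation: GI50, concentration required for 50% inhibition of growth.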 Activity calls are given as the source filed them. Rule as the data show it: active = GI50 up to about 1.1 µM and inactive = higher.

For `C[s+]1c2ccccc2c2ccccc21`, the GI50 was > 100 µM (inactive) with SK-MEL-5; 92.5 µM (inactive) with SR; > 100 µM (inactive) in the experiment on CCRF-CEM; > 100 µM (inactive) in the experiment on RPMI-8226; > 100 µM (inactive) with HCC 2998; > 100 µM (inactive) in the experiment on OVCAR-4. Moreover, the GI50 in the experiment with HCT-116 is > 100 µM (inactive); with TK-10 it was > 100 µM (inactive); with HCT-15, 92 µM; with NCI-H460 it was > 100 µM (inactive); in the experiment on UACC-62, > 100 µM (inactive); with NCI-H522, > 100 µM (inactive). In addition, the GI50 with MOLT-4 and in the experiment with OVCAR-3 was > 100 µM (inactive) each time.
`Cn1cnc([N+](=O)[O-])c1Sc1nc2ccccc2[nH]1`: the GI50 was 13.1 µM (inactive) with SK-MEL-5; 10 µM (inactive) in the experiment with SR; 17.9 µM (inactive) in the experiment on CCRF-CEM; 15.5 µM (inactive) in the experiment on RPMI-8226; 12.3 µM (inactive) with HCC 2998; 3.68 µM (inactive) in the experiment on CAKI-1. For the same compound, the GI50 in the experiment with OVCAR-4 was 33 µM (inactive); in the experiment with HCT-116 it was 14.8 µM (inactive); with TK-10 it was 19.3 µM (inactive); in the experiment with HCT-15, 11.1 µM; in the experiment with NCI-H460 it was 22.4 µM (inactive); with MOLT-4, 6.87 µM (inactive). In addition, the GI50 with OVCAR-3 is 31.9 µM (inactive).
In the case of `COc1cc(OC)c(Oc2cccc(OC)c2OC)c(OC)c1`, the GI50 in the experiment with SK-MEL-5, with SR, in the experiment with CCRF-CEM, in the experiment on HCC 2998, in the experiment with CAKI-1 and in the experiment on OVCAR-4 was > 100 µM (inactive) in each case. In addition, the GI50 in the experiment on HCT-116, in the experiment on TK-10, in the experiment on NCI-H460, in the experiment on UACC-62, in the experiment with NCI-H522 and in the experiment with MOLT-4 was > 100 µM (inactive) each time. Further, in the experiment with OVCAR-3, the GI50 was > 100 µM (inactive).
Regarding `O=C1OCC/C1=N/O`, the GI50 in the experiment on SK-MEL-5, in the experiment with SR, with CCRF-CEM, in the experiment with RPMI-8226, with HCC 2998 and with OVCAR-4 was > 100 µM (inactive) throughout. Also, the GI50 in the experiment on HCT-116 was > 100 µM (inactive); in the experiment with TK-10, > 100 µM (inactive); with HCT-15, > 100 µM; in the experiment on NCI-H460 it was > 100 µM (inactive); with UACC-62 it was > 100 µM (inactive); with NCI-H522, > 100 µM (inactive). Moreover, the GI50 with MOLT-4 and in the experiment on OVCAR-3 was > 100 µM (inactive) throughout.
In the case of `CC(C)=CC(=O)CC(=O)C(=O)Nc1ccc(Cl)c(Cl)c1`, the GI50 in the experiment with SR, in the experiment on CCRF-CEM, with RPMI-8226, with HCC 2998, with OVCAR-4 and with HCT-116 was > 100 µM (inactive) throughout. Moreover, the GI50 in the experiment on TK-10 is > 100 µM (inactive); in the experiment with HCT-15, > 100 µM; in the experiment on NCI-H460, > 100 µM (inactive); in the experiment with UACC-62 it was > 100 µM (inactive); with NCI-H522, > 100 µM (inactive); in the experiment with MOLT-4, > 100 µM (inactive). The GI50 in the experiment with OVCAR-3 is > 100 µM (inactive).
On to `Nc1nc(SCCC/C=C/I)nc2c1ncn2C1OC(COP(=O)(O)O)C(O)C1O` (stereo not given), for which the GI50 in the experiment on SK-MEL-5, in the experiment on SR, in the experiment with CCRF-CEM, with HCC 2998, in the experiment on OVCAR-4 and in the experiment with HCT-116 was > 100 µM (inactive) throughout. In addition, the GI50 with TK-10 is > 100 µM (inactive); with HCT-15 it was > 100 µM; in the experiment with NCI-H460 it was > 100 µM (inactive); in the experiment on UACC-62 it was > 100 µM (inactive); with NCI-H522, > 100 µM (inactive); in the experiment on MOLT-4 it was > 100 µM (inactive). Besides, the GI50 in the experiment with OVCAR-3 was > 100 µM (inactive).
